Entries after “also recorded” stand apart in the source; their conditions may differ.
How the values were obtained:
[1] = tested on: Wild type tomatoes (var. 'Ailsa Craig'); assay: Ripening (visual pigmentation) of wild type mature green tomato fruit; format: in vivo; conditions: for ripening response (pigmentation green to red) versus deionized water control: treated or injected with 1 mL of 2% solution, 7 days
Bartlett pears = assay: Ethylene and CO2 evolution of 1-MCP treated Bartlett pears in air-tight chambers (GC-FID, gas analyzer); format: in vivo, Pyrus communis
Experimental: Thereafter, each experimental group of fruit was placed in a separate air-tight chamber connected to a gas chromatography (GC) instrument configured to draw samples every 8 hours over the course of 5 days, to measure ethylene via a flame ionizing detector (FID), and to measure CO2 via a gas analyzer. The experiment was performed with 4 pears per chamber in 3 replicates per experimental group. Monitoring was performed to detect minor variation in air flow rates in all experimental chambers used and detected variations were accounted for in subsequent calculations.

whole pears = assay: Firmness of whole pears after 24 h immersion in glyoxylic acid solution (penetrometer); format: in vivo, pear; conditions: after 6 days
Experimental: In order to ripen whole pear fruit pretreated with 1-MCP, the fruits were treated by immersion in 0 mM, 0.1 mM, 0.25 mM, 0.5 mM glyoxylic acid. In other experiments, the fruits were treated by ambient fogging of fruit with 1 liter of solution of 1% (0.135 M), 2% (0.270 M) and 3% (0.405 M) glyoxylic acid solution (determined with 74 as the molecular weight of glyoxylic acid). The ambient fogging was carried out in a 192,000 cm^3 volume chamber using an ultrasonic humidifier. Various indicators of ripening were assayed thereafter. In a first assay, whole pears pre-treated with 1-MCP were immersed in 0 mM, 0.1 mM, 0.25 mM, or 0.5 mM glyoxylic acid solution for 24 hours. The fruit was assayed for firmness using a penetrometer six days after the immersion treatment. FIG. 7 graphically illustrates the reduction in firmness (i.e., development of softness) in pear fruit treated with various concentrations of glyoxylic acid. Non-1-MCP treated fruit (light bars) and 1-MCP treated fruit (dark bars) responded differently to glyoxylic acid treatment.

[2] = tested on: fruit slices of 1-MCP pre-treated pears; assay: Ethylene from slices of 1-MCP pre-treated pears immersed in glyoxylic acid, airtight jar; format: in vivo, pear; conditions: immersed 12-24 hours, measured after 8 hours
Experimental: The effect of glyoxylic acid on the restarting of ripening after 1-MCP-mediated arrest was also assayed with fruit that was sliced. Whole unripe pears were pre-treated with 1-MCP according to standard practice. The unripe pre-treated fruit were sliced and subject to glyoxylic acid treatments to assess its ability to induce ripening in the sliced fruit. First, fruit slices were immersed in 0.5 mM and 2.5 mM glyoxylic acid solution for 12-24 hours and placed in an airtight jar. Ethylene levels were measured after 8 hours. […] Slices immersed in the 2.5 mM glyoxylic also produced more (approximately 2-fold more) ethylene than the controls, although the increase in ethylene levels was not as high as for the 0.5 mM treatment.

[3] = tested on: whole pears with or without 1-MCP pre-treatment; assay: Internal ethylene of pears after ambient fogging with glyoxylic acid (gas extraction, GC/MS); format: in vivo, pear; conditions: both 1-MCP pre-treated and non-1-MCP pre-treated fruit
Experimental: As an additional confirmation of glyoxylic acid-mediated ripening of 1-MCP pre-treated pears, the internal ethylene of the fruit was also measured. First, the whole fruit with or without 1-MCP pre-treatment were treated with 0.5% ([…]) or 1% (0.135 M) glyoxylic acid using ambient fogging. Thereafter, one quarter of four separate pears from each treatment was sliced into four pieces and placed into a gas extraction chamber. A vacuum was created using an aspirator. For each experiment, 0.5 ml of extracted ethylene gas was injected into the GC/MS in three replicates. Measurements of ethylene in ppm were calculated using a previously established standard curve.

Haas avocado = assay: Avocado fruit flesh firmness after atomized GLA exposure (penetrometer); format: in vivo; conditions: for percentage of terminal ripened firmness achieved: 3% GLA 16 hours
Experimental: (§1) Fruits: Avocado and Mango fruits were purchased from Pullman Walmart and half were immediately placed in separate chambers for administration of glyoxylic acid, half were left on the bench top at 20° C.
(§2) GLA treatment: Humidification via sonication was accomplished by administering 1 liter of 3% (m/V) glyoxylic acid (GLA) solution in deionized water into the reservoir of a Crane humidifier model EE-5301. Atomized GLA solution was directed via surgical tubing from the humidifier into a custom acrylic chamber measuring approximately 40×60×60 cm containing 12 pears per treatment for 16 hours. Fruits were elevated from the chamber floor on metal baking racks to allow for exposure to GLA on all faces. One (1) 1 cm diameter port allowed for gas exchange between the atmosphere and chamber. A thick cloud of atomized GLA solution was visible in each chamber for the duration of each experimental exposure time. All experiments were conducted at 20° C.
Firmness measurements: Fruit firmness was measured via FTA penetrometer (GUSS Manufacturing, Norfolk, VA) at three equidistant locations around the middle of each fruit. Therefore, one biological replicate yielded three technical replicates. For each penetrometer measurement, approximately 2 cm^2 of fruit epidermal tissue was removed with a fruit peeler. Firmness measurements were taken at the locations on the fruit where epidermal tissue was removed. Firmness measurements were taken from three biological replicates per treatment at 1, 3, 5 and 7 days post treatment (DPT).
Firmness normalization: Firmness measurements were normalized to account for variability in starting fruit flesh firmness. At the start of each experiment, three untreated fruits were selected, and three fruit flesh measurements were taken from each and averaged. Firmness measurements from each exposure time treatment are reported as a percentage of the starting fruit flesh firmness average.

sliced pear fruit = assay: Ethylene evolved from sliced 1-MCP fruit treated with glyoxylic acid in sealed modified atmosphere bag; format: in vivo
Experimental: Next, a modified protocol was followed to expose fruit slices derived from 1-MCP pre-treated fruit to solutions of glyoxylic acid. Glyoxylic acid solutions ranging from 0.005% (0.675 mM), 0.150% (20.25 mM), 0.5% ([…]), 1% (0.135 M), 2% (0.270 M), 2.5% (0.338 M) and 3% (0.405 M) were prepared either alone or in conjunction with the Nature seal solution, which contains antioxidants that prevent fruit oxidation. 1-MCP fruit was sliced and treated with the 0.005%, 0.150%, 0.5% or 2.5% glyoxylic acid solutions and placed in a modified, sealed atmosphere bag. The amount of evolved ethylene was measured directly from the sealed bag of fruit. […] Finally, the 1-MCP fruit that were sliced and treated with 1%, 2% and 3% glyoxylic acid were evaluated in consumer preference trials in 2014 and 2015.

[4] = tested on: Non-MCP treated D'Anjou pears; assay: Flesh firmness of non-MCP treated D'Anjou pears after atomized GLA exposure (penetrometer); format: in vivo, pear; conditions: 3% GLA, various exposure times, 1, 3, 5, 7 days post exposure
Experimental: Pear fruit: Non-MCP treated D'Anjou pears picked on Oct. 4, 2019 were obtained from Blue Bird packing house (Blue Bird Inc., Wenatchee Washington) and stored at 1° C. until use.
as §2, with “GLA” for “(m/V) glyoxylic acid (GLA)”, “solution” for “solution in deionized water”, “treatment. Pears” for “treatment for 16 hours. Fruits”
(§3) Firmness measurements: Fruit firmness was measured via FTA penetrometer (GUSS Manufacturing, Norfolk, VA) at three equidistant locations around the middle of each fruit. Therefore, one biological replicate yielded three technical replicates. For each penetrometer measurement, approximately 2 cm^2 of fruit epidermal tissue was removed with a fruit peeler. Firmness measurements were taken at the locations on the fruit where epidermal tissue was removed. […]

[5] = tested on: 1-MCP pre-treated fruit (whole pear); assay: Firmness and Brix of 1-MCP pre-treated whole pears after ambient fogging with glyoxylic acid; format: in vivo; conditions: 1% (0.135 M) ambient fogging
Experimental: In order to ripen whole pear fruit pretreated with 1-MCP, the fruits were treated by immersion in 0 mM, 0.1 mM, 0.25 mM, 0.5 mM glyoxylic acid. In other experiments, the fruits were treated by ambient fogging of fruit with 1 liter of solution of 1% (0.135 M), 2% (0.270 M) and 3% (0.405 M) glyoxylic acid solution (determined with 74 as the molecular weight of glyoxylic acid). The ambient fogging was carried out in a 192,000 cm^3 volume chamber using an ultrasonic humidifier. Various indicators of ripening were assayed thereafter.
Next, 1-MCP pre-treated fruit were treated with glyoxylic acid using ambient fogging at 0% or 1% (0.135 M) glyoxylic acid. In this experiment, the fruit firmness was measured at two time points—immediately after the fogging treatment and again 8 days later using a penetrometer. […] The fruit were also assessed for ripeness by assaying the Brix values, which are indicative of total soluble solids and also serve as an industry standard for fruit ripening. […] All these experiments have been repeated multiple times and have been consistent with the above data.

rin tomato fruit = assay: Ripening (visual pigmentation) of rin mutant tomato fruit; format: in vivo; conditions: for ripening response (change in pigmentation) of rin tomato fruit: 2% GLA, observed over 14 days; for pigment response in untreated rin fruit on the same branches as treated fruit: GLA injection to a single fruit
Mango = Mango fruit flesh firmness after atomized GLA exposure (penetrometer); format: in vivo; conditions: 3% GLA, 16 hours, readings confounded by variable rinds
Experimental: as §1, §2, §3

## [Cl-].[Cl-].[Co+2] [CoCl2, reference compound]
[1]; in vivo
  visible ripening response: no visible ripening response

## S [RC-1, hydrogen sulfide]
Bartlett pears; 0.5 mM H2S
  evolution of ethylene: clear and steady increase in the evolution of ethylene
Bartlett pears; 0.5 mM H2S (RC-1), 5 days monitoring
  level of respiration (evolved CO2): positive trend
Bartlett pears; 0.5 mM H2S (RC-1), 5 days monitoring, listed as H2S
  level of respiration (evolved CO2): generally positive trend
Bartlett pears; 2.5 mM H2S
  level of ethylene versus control fruit: indistinguishable and very low
Bartlett pears; 2.5 mM H2S, perhaps a stress response
  level of respiration (evolved CO2): higher levels of carbon dioxide
Bartlett pears; RC-1, pear fruit blocked for ripening by 1-MCP
  time post-treatment at which ethylene evolution is observed: 48 h

## O=CC(=O)O [glyoxylic acid]
Whole pears; 0.5 mM immersion solution
  firmness effect in 1-MCP treated fruit: especially enhanced over control
Whole pears; 0.5 mM
  firmness of non-1-MCP treated fruit: reduction in firmness is evident
Whole pears; all concentrations (0.1, 0.25, 0.5 mM), 24 h immersion, compared to non-1-MCP treated fruit
  firmness of 1-MCP treated fruit: drop in firmness
Bartlett pears; 0.25 mM RC-2, pear fruit blocked for ripening by 1-MCP
  time at which ethylene evolution is observed: ≤ 16 h
Bartlett pears; 0.25 mM glyoxylic acid (RC-2)
  evolution of ethylene: clear and steady increase in the evolution of ethylene
Bartlett pears; 1, 2.5 and 10 mM glyoxylic acid
  level of ethylene versus control fruit: indistinguishable and very low
Bartlett pears; as little as 0.25 mM
  maturation in pears after 1-MCP treatment: induces maturation
[2]; 0.5 mM
  ethylene generated relative to control slices: 5 fold
[2]; 2.5 mM
  ethylene generated relative to control slices: approximately 2 fold
[3]; 0.5% (0.6.75 mM) ambient fogging
  internal ethylene evolution: effective in inducing the evolution of ethylene
[3]; 1% (0.135 M) ambient fogging
  internal ethylene evolution: effective in inducing the evolution of ethylene
Haas avocado; one day post treatment (control 31%)
  percentage of terminal ripened firmness achieved: 81%
Haas avocado; three days post treatment (control 96%)
  percentage of terminal ripened firmness achieved: 92%
Haas avocado; 3% GLA solution, atomized, 16 hours, listed as GLA
  ripening as measured by fruit flesh firmness versus non-GLA control: significant acceleration of ripening; also recorded: evidence for accelerated ripening
Sliced pear fruit; 2.5% (337 mM) solution, sealed atmosphere bag
  evolution of ethylene from sliced fruit versus control: enhanced the evolution of ethylene; also recorded: significantly increased ethylene production
Sliced pear fruit; some of a range of concentrations (0.005%-2.5%)
  ethylene evolved versus control fruit: releases more ethylene than the control fruit
[1]
  ripening response (pigmentation green to red) versus deionized water control: accelerated ripening
[1]; listed as GLA
  ripening response (pigmentation green to red) versus deionized water control: accelerated ripening response
[4]
  ripening as measured by pear fruit flesh firmness: trend towards accelerated ripening
[5]; 8 days
  fruit firmness: 2 lbf
[5]; 8 days post fogging
  Brix values (total soluble solids): significantly increased brix values
Rin tomato fruit
  ripening response (change in pigmentation) of rin tomato fruit: change in pigmentation resembling that achieved at breaker stage in wild type tomatoes
  pigment response in untreated rin fruit on the same branches as treated fruit: systemic
Rin tomato fruit; listed as GLA
  ripening response (change in pigmentation) of rin tomato fruit: enables ripening of rin mutant fruit
  pigment response in untreated rin fruit on the same branches as treated fruit: Systemic pigmentation response
Mango
  ripening as measured by fruit flesh firmness: trend towards accelerated ripening

Reference: patent publication US12653181B2, “Control of ripening and senescence in pre-harvest and post-harvest plants and plant materials by manipulating alternative oxidase activity” (Washington State University, priority 2012, dated 2026)
